Literature values, collected in patent US12343417B2, “Antiperspirant compositions” (Conopco, Inc., priority 2018, dated 2025).

System: Staphylococcus epidermidis
Conditions: 80% or greater reduction in growth over 16 to 24 hours at 37° C.

Row | MIC | Structure (SMILES)
1 | greater than 1 mg·ml^−1 | CCO [ethanol]
2 | ca. 25 μg·ml^−1 | CC(C)=CCCC(C)=CCCC(C)=CCO [farnesol, 3,7,11-trimethyldodeca-2,6, 10-trienol]

Row | Structure (SMILES) | MIC
3 | Oc1cc(Cl)ccc1Oc1ccc(Cl)cc1Cl [triclosan, 2′,4,4′-trichloro,2-hydroxy-diphenyl ether] | 0.01 to 10 µg/mL
